Series [1] can be described thus: Cytotoxic activity against human PBMC assessed as reduction in cell viability. The class given is cell-based.
Series [2] relates to Plasma. Briefly: (§1) Plasma protein binding in human plasma at 1 uM after 5 hrs by LC-MS/MS analysis. The series is classed as ADME, cell-free. The settings on record: 5 h, 1 µM.
Series [3] relates to Human immunodeficiency virus 1. Briefly: Antiviral activity against R5 tropic Human immunodeficiency virus 1 BAL infected in human PBMC cells assessed as reduction in viral replication by p24 detection based ELISA. The class given is functional, organism-based. Background: ELISA stands for enzyme-linked immunosorbent assay.
In series [4] the target is T1, C-X-C chemokine receptor type 1 (Homo sapiens) (UniProt P25024).
T1 sequence (whole entry): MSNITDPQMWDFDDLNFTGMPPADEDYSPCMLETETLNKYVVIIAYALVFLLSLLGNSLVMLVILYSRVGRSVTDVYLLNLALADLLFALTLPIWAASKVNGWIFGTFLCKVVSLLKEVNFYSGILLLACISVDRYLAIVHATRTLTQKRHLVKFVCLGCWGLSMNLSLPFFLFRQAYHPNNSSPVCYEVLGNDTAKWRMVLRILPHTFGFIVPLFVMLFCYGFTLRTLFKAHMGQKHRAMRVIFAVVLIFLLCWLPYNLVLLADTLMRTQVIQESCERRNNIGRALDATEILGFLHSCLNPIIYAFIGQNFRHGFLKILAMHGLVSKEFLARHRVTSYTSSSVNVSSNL
Briefly: Inhibition of CXCR1 by Ca(2+) flux assay.

Series [5] in a line: Clearance in dog at 5 umol/kg, iv. The settings on record: in vivo. The class given is ADME, organism-based, Canis lupus familiaris.
For series [6], the target named is C-X-C chemokine receptor type 4 (Homo sapiens) (UniProt P61073). Briefly: Inhibition of CXCR4 by Ca(2+) flux assay.
For series [7], the target named is T2, C-X-C chemokine receptor type 2 (Homo sapiens) (UniProt P25025).
T2 sequence (whole entry): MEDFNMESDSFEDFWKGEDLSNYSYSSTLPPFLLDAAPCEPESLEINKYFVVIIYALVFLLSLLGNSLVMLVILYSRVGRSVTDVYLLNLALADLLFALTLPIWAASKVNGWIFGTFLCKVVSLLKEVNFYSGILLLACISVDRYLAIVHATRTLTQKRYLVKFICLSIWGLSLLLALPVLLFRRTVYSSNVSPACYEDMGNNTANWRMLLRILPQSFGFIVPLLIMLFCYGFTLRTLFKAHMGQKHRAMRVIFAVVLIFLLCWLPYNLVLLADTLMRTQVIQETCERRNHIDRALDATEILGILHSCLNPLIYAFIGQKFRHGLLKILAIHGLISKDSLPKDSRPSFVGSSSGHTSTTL
Nature of the series: Inhibition of CXCR2 by Ca(2+) flux assay.

For series [8], the target named is Cytochrome P450 2C19 (Homo sapiens, UniProt P33261). Nature of the series: Inhibition of CYP2C19. The class given is ADME.
A short description of series [9]: Cmax in rat. The series is classed as ADME, organism-based. The settings on record: in vivo.
Series [10] has as its target Cytochrome P450 2C9 (Homo sapiens, UniProt P11712). Nature of the series: Inhibition of CYP2C9. The class given is ADME.
Series [11] can be described thus: AUC (0 to infinity) in dog. The settings on record: plasma. On the set-up: time infinity; concentration or dose not given beside the values. The series is classed as ADME, organism-based, Canis lupus familiaris.
Series [12] addresses T3, Cytochrome P450 1A2 (Homo sapiens, UniProt P05177).
T3 sequence (P05177 whole entry): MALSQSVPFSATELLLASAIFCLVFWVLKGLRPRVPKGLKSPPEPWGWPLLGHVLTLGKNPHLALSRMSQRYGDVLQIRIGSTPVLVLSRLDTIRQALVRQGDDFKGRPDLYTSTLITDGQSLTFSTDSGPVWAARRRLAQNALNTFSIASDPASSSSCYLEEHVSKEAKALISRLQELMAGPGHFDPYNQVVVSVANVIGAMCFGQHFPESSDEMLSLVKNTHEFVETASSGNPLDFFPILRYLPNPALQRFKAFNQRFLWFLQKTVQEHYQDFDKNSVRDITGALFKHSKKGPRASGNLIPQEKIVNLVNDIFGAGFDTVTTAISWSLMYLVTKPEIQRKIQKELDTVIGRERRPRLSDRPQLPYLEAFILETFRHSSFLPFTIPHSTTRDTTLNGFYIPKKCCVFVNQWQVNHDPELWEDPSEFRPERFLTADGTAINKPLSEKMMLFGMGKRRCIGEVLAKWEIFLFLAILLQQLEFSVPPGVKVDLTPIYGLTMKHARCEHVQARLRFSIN
Nature of the series: Inhibition of CYP1A2. The series is classed as ADME.

Series [13] concerns the target Voltage-gated inwardly rectifying potassium channel KCNH2 (Homo sapiens, UniProt Q12809). Briefly: Inhibition of human ERG.
A short description of series [14]: Half life in dog at 5 umol/kg, iv. The series is classed as ADME, organism-based, Canis lupus familiaris. The settings on record: in vivo.
Series [15] can be described thus: Clearance in rat at 10 umol/kg, iv. The series is classed as ADME, organism-based. The note with it: in vivo.
The nature of series [16]: Volume of distribution at steady state in dog at 5 umol/kg, iv. The series is classed as ADME, organism-based, Canis lupus familiaris. The settings on record: in vivo, read-out: Vdss.
The nature of series [17]: Half life in rat at 10 umol/kg, iv. The note with it: in vivo, 10 umol/kg. The series is classed as ADME, organism-based.
The nature of series [18]: Volume of distribution at steady state in rat at 10 umol/kg, iv. The class given is ADME, organism-based. The settings on record: in vivo, 10 umol/kg, read-out: Vdss.
The target of series [19] is T4, Muscarinic acetylcholine receptor M2 (Homo sapiens) (UniProt P08172).
T4 sequence (whole entry): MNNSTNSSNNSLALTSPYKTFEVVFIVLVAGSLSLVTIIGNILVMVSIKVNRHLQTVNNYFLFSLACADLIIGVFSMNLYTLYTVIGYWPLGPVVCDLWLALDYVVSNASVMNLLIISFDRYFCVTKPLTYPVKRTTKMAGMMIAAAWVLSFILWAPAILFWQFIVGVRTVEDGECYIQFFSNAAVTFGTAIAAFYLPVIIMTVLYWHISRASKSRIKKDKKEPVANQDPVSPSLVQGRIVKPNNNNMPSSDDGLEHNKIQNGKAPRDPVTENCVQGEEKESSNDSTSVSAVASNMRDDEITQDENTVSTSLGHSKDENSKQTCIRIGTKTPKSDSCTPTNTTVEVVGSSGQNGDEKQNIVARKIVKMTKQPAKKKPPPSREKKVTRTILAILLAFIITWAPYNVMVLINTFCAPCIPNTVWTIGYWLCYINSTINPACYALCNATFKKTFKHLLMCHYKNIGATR
Nature of the series: Inhibition of muscarinic M2 receptor.

Series [20] is described as follows: Cmax in dog. The class given is ADME, organism-based, Canis lupus familiaris. The note with it: in vivo.
Series [21] has as its target T5, C-C chemokine receptor type 1 (Homo sapiens) (UniProt P32246).
T5 sequence (whole entry): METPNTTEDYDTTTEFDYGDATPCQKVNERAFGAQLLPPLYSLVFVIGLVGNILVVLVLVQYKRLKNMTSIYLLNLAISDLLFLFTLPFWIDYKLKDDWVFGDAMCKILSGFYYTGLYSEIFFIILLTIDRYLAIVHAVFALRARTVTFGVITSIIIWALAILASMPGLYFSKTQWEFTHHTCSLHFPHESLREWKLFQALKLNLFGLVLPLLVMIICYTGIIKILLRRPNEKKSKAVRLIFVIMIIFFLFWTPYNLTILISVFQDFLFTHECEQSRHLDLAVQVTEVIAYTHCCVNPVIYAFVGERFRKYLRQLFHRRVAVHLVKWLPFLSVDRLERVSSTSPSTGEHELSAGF
Briefly: Inhibition of CCR1 by Ca(2+) flux assay.

Series [22] deals with C-C chemokine receptor type 2 (Homo sapiens) (UniProt P41597). Nature of the series: Inhibition of CCR2B by Ca(2+) flux assay.
Series [23] addresses Cytochrome P450 2D6 (Homo sapiens, UniProt P10635). Nature of the series: Inhibition of CYP2D6. The series is classed as ADME.
Series [24] is described as follows: as §1. The class given is ADME, cell-free. The note with it: read-out: PPB (converted).
For series [25], the target named is Cytochrome P450 3A4 (Homo sapiens, UniProt P08684). Nature of the series: Inhibition of CYP3A4. The class given is ADME.
A short description of series [26]: AUC (0 to infinity) in rat. The class given is ADME, organism-based. On the set-up: time infinity; concentration or dose not given beside the values. The note with it: plasma.
The nature of series [27]: Oral bioavailability in dog. The series is classed as ADME, organism-based, Canis lupus familiaris. The settings on record: in vivo.
The nature of series [28]: Oral bioavailability in rat. The class given is ADME, organism-based. The settings on record: in vivo.
Series [29] concerns the target T6, C-C chemokine receptor type 4 (Homo sapiens) (UniProt P51679).
T6 sequence (whole entry): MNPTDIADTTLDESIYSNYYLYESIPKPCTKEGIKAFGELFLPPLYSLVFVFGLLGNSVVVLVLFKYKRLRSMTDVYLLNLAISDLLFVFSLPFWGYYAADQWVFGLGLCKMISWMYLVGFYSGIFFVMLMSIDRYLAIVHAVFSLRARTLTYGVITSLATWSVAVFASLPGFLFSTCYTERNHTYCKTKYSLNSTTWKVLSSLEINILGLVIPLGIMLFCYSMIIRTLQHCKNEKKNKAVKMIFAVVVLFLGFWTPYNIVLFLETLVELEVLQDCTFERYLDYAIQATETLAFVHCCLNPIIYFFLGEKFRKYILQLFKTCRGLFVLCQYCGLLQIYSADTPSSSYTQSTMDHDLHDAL
Briefly: Inhibition of CCR4 by Ca(2+) flux assay.

In general, CC50 refers to the concentration that lowers cell viability or growth by half. By IC50 is commonly meant the midpoint of a concentration-inhibition curve. Broadly, the clearance is the rate of elimination divided by the concentration. By Cmax is commonly meant the maximum level reached in the sampled fluid or tissue. One may read the AUC(0-inf) as total exposure, with the tail of the curve extrapolated. What is called half-life is the time in which the quantity being followed falls by half. Broadly, the bioavailability is dose-corrected exposure relative to a reference, in per cent.

Active and inactive are the calls of the source. The rule behind the calls is not given here.

C-C chemokine receptor type 2 (Homo sapiens), sequence (P41597 whole entry, looked up): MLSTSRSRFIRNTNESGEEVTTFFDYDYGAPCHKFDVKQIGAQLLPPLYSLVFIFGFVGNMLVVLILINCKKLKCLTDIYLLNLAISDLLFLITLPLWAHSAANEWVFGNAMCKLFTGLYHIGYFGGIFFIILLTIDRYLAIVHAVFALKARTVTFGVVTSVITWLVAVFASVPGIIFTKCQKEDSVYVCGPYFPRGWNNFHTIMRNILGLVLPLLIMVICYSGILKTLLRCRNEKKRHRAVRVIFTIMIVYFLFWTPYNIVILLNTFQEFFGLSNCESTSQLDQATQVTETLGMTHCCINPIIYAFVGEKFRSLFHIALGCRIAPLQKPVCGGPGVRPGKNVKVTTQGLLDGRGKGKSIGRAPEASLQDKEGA
Voltage-gated inwardly rectifying potassium channel KCNH2, sequence (Q12809 whole entry): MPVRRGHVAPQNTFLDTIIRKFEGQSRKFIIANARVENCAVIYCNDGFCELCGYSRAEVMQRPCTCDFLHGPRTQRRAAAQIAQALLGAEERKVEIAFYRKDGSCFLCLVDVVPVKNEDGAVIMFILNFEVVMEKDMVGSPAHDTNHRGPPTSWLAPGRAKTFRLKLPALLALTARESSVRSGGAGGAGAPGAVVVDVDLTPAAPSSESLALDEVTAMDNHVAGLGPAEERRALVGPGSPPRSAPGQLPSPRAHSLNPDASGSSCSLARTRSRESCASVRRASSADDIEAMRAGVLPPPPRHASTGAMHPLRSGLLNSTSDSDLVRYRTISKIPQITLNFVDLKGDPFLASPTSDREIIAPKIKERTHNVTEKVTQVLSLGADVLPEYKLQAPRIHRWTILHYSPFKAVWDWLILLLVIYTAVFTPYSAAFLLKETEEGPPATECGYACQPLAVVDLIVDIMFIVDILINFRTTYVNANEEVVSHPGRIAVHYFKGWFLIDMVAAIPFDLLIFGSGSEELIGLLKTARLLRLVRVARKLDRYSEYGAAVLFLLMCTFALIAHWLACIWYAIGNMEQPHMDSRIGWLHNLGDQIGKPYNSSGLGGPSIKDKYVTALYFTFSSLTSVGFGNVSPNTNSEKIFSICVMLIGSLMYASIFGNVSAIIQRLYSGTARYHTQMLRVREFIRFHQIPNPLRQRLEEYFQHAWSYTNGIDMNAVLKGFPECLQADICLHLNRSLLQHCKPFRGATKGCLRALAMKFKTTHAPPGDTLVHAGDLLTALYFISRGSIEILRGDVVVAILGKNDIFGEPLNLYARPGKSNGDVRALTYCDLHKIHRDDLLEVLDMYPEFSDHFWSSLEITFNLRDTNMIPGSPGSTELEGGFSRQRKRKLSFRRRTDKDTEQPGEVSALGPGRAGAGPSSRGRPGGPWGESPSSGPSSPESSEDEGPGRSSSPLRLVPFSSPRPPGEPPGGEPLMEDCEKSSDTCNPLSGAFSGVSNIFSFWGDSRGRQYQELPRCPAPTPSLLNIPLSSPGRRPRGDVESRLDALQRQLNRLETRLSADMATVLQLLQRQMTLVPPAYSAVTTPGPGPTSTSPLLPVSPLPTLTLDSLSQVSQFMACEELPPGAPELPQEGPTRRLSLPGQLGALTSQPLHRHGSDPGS
Cytochrome P450 2C9, sequence (P11712 whole entry): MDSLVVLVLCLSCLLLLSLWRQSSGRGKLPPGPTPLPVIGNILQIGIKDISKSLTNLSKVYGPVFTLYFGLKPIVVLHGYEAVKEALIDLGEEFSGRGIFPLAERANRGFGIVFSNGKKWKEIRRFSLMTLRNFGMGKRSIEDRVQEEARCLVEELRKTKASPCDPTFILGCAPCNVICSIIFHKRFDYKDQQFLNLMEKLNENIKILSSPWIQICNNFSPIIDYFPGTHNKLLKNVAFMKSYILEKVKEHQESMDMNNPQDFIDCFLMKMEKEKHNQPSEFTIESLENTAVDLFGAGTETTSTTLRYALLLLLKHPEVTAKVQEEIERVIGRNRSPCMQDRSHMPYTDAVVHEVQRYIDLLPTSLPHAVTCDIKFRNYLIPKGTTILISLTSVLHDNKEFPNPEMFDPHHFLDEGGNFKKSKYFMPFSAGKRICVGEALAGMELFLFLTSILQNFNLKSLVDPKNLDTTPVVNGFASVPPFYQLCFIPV
Cytochrome P450 3A4, sequence (P08684 whole entry): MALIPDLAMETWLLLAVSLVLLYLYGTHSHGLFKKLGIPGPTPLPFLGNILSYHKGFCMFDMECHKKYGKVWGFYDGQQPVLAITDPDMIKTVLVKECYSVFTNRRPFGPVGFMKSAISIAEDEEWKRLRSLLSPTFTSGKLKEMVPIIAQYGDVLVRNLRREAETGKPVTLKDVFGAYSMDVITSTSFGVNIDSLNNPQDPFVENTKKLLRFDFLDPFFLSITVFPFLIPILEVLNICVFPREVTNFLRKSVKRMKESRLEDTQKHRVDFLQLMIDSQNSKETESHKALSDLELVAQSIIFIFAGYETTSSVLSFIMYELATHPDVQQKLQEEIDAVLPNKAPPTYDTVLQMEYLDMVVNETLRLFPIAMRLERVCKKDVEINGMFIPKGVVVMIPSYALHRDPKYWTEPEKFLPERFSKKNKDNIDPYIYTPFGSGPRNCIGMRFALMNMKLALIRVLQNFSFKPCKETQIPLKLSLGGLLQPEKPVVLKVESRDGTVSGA
C-X-C chemokine receptor type 4 (Homo sapiens), sequence (P61073 whole entry): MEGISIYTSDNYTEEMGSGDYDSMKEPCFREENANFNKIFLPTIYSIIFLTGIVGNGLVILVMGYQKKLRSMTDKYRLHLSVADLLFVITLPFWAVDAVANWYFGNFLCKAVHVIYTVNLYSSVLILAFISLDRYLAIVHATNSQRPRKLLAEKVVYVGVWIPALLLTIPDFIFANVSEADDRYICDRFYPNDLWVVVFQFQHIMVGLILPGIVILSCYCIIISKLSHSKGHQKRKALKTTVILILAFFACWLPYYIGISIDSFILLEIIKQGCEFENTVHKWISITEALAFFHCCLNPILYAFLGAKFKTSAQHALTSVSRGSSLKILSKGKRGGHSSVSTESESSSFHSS
Cytochrome P450 2C19, sequence (P33261 whole entry): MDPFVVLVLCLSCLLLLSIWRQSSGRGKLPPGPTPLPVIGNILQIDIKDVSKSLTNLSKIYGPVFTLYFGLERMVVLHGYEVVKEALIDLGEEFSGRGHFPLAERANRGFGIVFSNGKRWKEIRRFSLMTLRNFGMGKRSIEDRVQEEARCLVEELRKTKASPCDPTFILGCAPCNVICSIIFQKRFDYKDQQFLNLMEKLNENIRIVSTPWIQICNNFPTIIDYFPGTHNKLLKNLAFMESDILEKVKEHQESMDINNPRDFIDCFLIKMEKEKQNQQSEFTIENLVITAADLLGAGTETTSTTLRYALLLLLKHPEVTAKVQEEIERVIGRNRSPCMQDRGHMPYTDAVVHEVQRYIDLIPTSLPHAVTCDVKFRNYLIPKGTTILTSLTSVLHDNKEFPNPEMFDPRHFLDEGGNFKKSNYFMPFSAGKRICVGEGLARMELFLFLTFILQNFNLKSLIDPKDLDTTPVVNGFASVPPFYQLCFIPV
Cytochrome P450 2D6, sequence (P10635 whole entry): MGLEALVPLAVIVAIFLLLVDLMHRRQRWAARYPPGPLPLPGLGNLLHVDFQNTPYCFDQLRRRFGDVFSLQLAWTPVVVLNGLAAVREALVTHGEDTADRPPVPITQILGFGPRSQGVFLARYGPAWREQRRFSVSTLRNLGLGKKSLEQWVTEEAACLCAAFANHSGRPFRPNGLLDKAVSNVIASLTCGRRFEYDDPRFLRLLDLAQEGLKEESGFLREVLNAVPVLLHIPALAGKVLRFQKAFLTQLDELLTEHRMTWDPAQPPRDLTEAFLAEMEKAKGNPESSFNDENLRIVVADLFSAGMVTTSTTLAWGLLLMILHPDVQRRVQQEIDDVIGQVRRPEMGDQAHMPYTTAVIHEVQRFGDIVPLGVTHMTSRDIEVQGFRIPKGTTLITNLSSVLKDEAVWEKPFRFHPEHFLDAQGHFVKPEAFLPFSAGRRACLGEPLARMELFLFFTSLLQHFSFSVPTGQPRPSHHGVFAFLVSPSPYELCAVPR

For the compound `COc1ccc(N(Cc2cnccc2C)C2CCN([C@H](C)CCNC(=O)c3c(C)ncnc3C)CC2)cc1`, in [1], the CC50 was above 38300 nM. Also, in series [2], the PPB is listed as 75%. In series [3], the IC50 stood at 1830 nM.
Consider `COc1ccc(N(Cc2cnccc2C)C2CCN([C@H](C)CCNC(=O)c3c(C)cc(Cl)nc3C)CC2)cc1`, for which the inhibition result in [4], in [6], in series [7], in [19], in [21] and in [22] was “inactive” throughout. The inhibition entry in [29] is “inactive”. Further, the clearance in [5] turned out to be 30 mL/min/kg; in series [15], 46.7 mL/min/kg. Moreover, the INH in series [8], in series [10], in series [12], in series [23] and in [25] was above 10 µM throughout. Also, the Cmax worked out at 3800 nM in series [9] and 580 nM in [20]. The AUC(0-inf) was found to be 1.33 µM·h in series [11] and 22.7 µM·h in [26]. Moreover, the CC50 in series [1] is above 36400 nM. Also, the IC50 in series [13] came out at 250 nM; in [3], 2.2 nM. For the same compound, the half-life in series [14] was 13.5 h; in series [17] it was 10 h. Moreover, the Vd was 34.7 L/kg in series [16] and 40.5 L/kg in series [18]. Also, the fraction unbound at 5 h, 1 µM in series [24] is 0.08. The bioavailability in series [27] came to 21%; in series [28], 67%.

The values above are taken from ChEMBL document CHEMBL1926604, “Design and synthesis of pyridin-2-ylmethylaminopiperidin-1-ylbutyl amide CCR5 antagonists that are potent inhibitors of M-tropic (R5) HIV-1 replication” (Bioorg Med Chem Lett, 2011).
